Test results taken from ChEMBL document CHEMBL1201862, “PubChem BioAssay data set” (2004).
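Where inhibition never reached the appropriate level, the endpoint shown equals the highest concentration tested. Otherwise, values were interpolated linearly from a five-concentration, 48-hour dose response in 96-well plates. Here, GI50 denotes the concentration required for 50% inhibition of growth.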 Calls of active or inactive are those of the source. Cut-off read from the data, not from the text of the source: active = GI50 up to about 1.1 µM and inactive = higher.

Columns and labels:
Assay in all cases: inhibition of tumour cell growth, NCI panel, 48 h
EKVX = tested on: EKVX
RPMI-8226 = tested on: RPMI-8226
U-251 = tested on: U-251
OVCAR-5 = tested on: OVCAR-5
OVCAR-3 = tested on: OVCAR-3
HCT-15 = tested on: HCT-15
SK-MEL-5 = tested on: SK-MEL-5
UACC-257 = tested on: UACC-257
MDA-MB-435 = tested on: MDA-MB-435
IGROV-1 = tested on: IGROV-1
HL-60 = tested on: HL-60
TK-10 = tested on: TK-10
MDA-MB-231 = tested on: MDA-MB-231
SK-MEL-28 = tested on: SK-MEL-28
MOLT-4 = tested on: MOLT-4
SF-539 = tested on: SF-539
MCF7 = tested on: MCF7
SR = tested on: SR
UO-31 = tested on: UO-31
786-0 = tested on: 786-0

SMILES	GI50 (EKVX)	GI50 (RPMI-8226)	GI50 (U-251)	GI50 (OVCAR-5)	GI50 (OVCAR-3)	GI50 (HCT-15) [µM]	GI50 (SK-MEL-5)	GI50 (UACC-257)	GI50 (MDA-MB-435)	GI50 (IGROV-1)	GI50 (HL-60)	GI50 (TK-10)	GI50 (MDA-MB-231)	GI50 (SK-MEL-28)	GI50 (MOLT-4)	GI50 (SF-539)	GI50 (MCF7)	GI50 (SR)	GI50 (UO-31)	GI50 (786-0)
Cn1c(=S)c2nc(SCCCc3ccccc3)[nH]c2n(C)c1=O	13.7 µM (inactive)	15.1 µM (inactive)	23.2 µM (inactive)	20.7 µM (inactive)	20.9 µM (inactive)	29.8	6.67 µM (inactive)	8.24 µM (inactive)	23.2 µM (inactive)	35.6 µM (inactive)	18.2 µM (inactive)	17.4 µM (inactive)	42.5 µM (inactive)	46.6 µM (inactive)	13.5 µM (inactive)	27.9 µM (inactive)	22.1 µM (inactive)	4.85 µM (inactive)	14.4 µM (inactive)	25.1 µM (inactive)
O=C1Nc2ccccc2/C1=N/Nc1ccccc1Cl	14.5 µM (inactive)	64.9 µM (inactive)	17.6 µM (inactive)	51.8 µM (inactive)	26.6 µM (inactive)	> 100	68.5 µM (inactive)	35.3 µM (inactive)	> 100 µM (inactive)	1.78 µM (inactive)	68.1 µM (inactive)	5.41 µM (inactive)	10.3 µM (inactive)	> 100 µM (inactive)	75.2 µM (inactive)	29 µM (inactive)	> 100 µM (inactive)	7.62 µM (inactive)	18.7 µM (inactive)	10.6 µM (inactive)
C[C@@H]1C[C@H](O)[C@]2(O)O[C@@H]3C[C@@]4(C=O)[C@@H](CC[C@@H]5[C@@H]4CC[C@]4(C)[C@@H](C6=CC(=O)OC6)CC[C@]54O)C[C@H]3O[C@@H]2O1 [CALOTROPIN]	0.0178 µM (active)	0.0246 µM (active)	0.034 µM (active)	0.126 µM (active)	0.0182 µM (active)	0.0327	0.0278 µM (active)	0.0592 µM (active)	0.0675 µM (active)	0.0209 µM (active)	0.0397 µM (active)	0.0254 µM (active)	0.221 µM (active)	0.112 µM (active)	0.0163 µM (active)	0.0212 µM (active)	0.0238 µM (active)	0.0181 µM (active)	0.0583 µM (active)	0.0156 µM (active)
